Data on 14 compounds can be found in patent US10975037B2 (priority 2018, dated 2021).

The target of test [1] is human RORγt ligand binding domain (RORγt LBD) (Homo sapiens (Human), UniProt P51449). As to the kind of experiment: RORγt ThermoFluor® assay (thermal shift binding). Summed up:
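Thermal shift with 0.065 mg/mL RORγt LBD and 60 μM 1,8-ANS in 100 mM Hepes pH 7.0, 10 mM NaCl, 2.5 mM GSH, 0.002% Tween-20.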

The target in another test is full-length human RORγt (Homo sapiens (Human), UniProt P51449). As to the kind of experiment: RORγt (full-length human) reporter assay, conditions A or B, HEK293T cells. The format is cell-based. As to conditions: for inhibition at 2 µM: 2 μM compound concentration; for inhibition at 6 µM: read-out: RORγt (FL) Reporter Assay A or B, % inhibition @ 6 μM. Put shortly: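 After 16–20 h, dual firefly/Renilla luciferase luminescence was read. Firefly signal was normalized to DMSO and saturating reference compound, then to Renilla, and fitted for IC50; % inhibition is versus DMSO.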
Sequence of full-length human RORγt (P51449 other isoform, or with tags, fused parts or gaps): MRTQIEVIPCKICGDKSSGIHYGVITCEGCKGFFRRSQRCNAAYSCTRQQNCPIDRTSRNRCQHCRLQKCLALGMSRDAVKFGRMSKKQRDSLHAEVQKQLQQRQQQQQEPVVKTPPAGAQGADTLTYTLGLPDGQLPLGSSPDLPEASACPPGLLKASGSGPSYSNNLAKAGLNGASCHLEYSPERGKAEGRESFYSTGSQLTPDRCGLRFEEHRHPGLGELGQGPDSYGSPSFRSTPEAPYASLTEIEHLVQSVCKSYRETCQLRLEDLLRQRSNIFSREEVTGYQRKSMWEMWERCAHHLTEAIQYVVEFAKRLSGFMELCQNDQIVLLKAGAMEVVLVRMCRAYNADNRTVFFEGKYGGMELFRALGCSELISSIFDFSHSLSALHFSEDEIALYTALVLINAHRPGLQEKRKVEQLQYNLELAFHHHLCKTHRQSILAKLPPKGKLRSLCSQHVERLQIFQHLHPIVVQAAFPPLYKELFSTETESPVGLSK
Background: A reporter such as luciferase makes a cellular process visible.

Setting [2] is: read-out: ThermoFluor® Assay, Kd.
Where [3] appears, read: HEK-293T, read-out: RORγt (FL) Reporter Assay A or B, % inhibition.
[4] abbreviates: RORγt (FL) Reporter Assay A or B, IC50, HEK293T cells.
Setting [5] is: HEK-293T, 0.67 μM compound concentration (footnote ****), read-out: RORγt (FL) Reporter Assay A or B, % inhibition.
Setting [6] is: HEK-293T, 6 μM compound concentration.

Structures are written as SMILES. Like-named read-outs stand apart in the source and are kept apart here.

Sequence of human RORγt ligand binding domain (RORγt LBD) (P51449 other isoform, or with tags, fused parts or gaps): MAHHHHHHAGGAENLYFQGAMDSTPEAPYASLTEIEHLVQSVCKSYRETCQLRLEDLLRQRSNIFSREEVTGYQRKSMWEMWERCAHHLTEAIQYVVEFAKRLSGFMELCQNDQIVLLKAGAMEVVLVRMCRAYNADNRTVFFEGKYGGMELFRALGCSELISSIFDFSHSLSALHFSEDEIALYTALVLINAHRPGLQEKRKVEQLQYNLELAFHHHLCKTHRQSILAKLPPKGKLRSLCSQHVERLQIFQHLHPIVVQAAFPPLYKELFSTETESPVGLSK

Broadly, the Kd is the equilibrium constant for the complex coming apart. Usually inhibition stands for the drop in the measured response relative to a control, in per cent. Usually IC50 stands for the midpoint of a concentration-inhibition curve. Consider `CCn1nc(C(=O)NC[C@H]2CC[C@H](S(C)(=O)=O)CC2)c(Cl)c1-c1ccc(N[C@H](C)C(F)(F)F)cc1F` [Example 181, 4-Chloro-1-ethyl-5-(2-fluoro-4-(((R)-1,1,1-trifluoropropan-2-yl)amino)phenyl)-N-(((1r,4R)-4-(methylsulfonyl)cyclohexyl)methyl)-1H-pyrazole-3-carboxamide], for which the Kd in test [1] (setting [2]) amounted to 7 nM. In addition, at full-length human RORγt (setting [3]), the inhibition at 2 µM was 101%. The compound also had an IC50 against full-length human RORγt (setting [4]) of 45 nM.
Consider `CCn1nc(C(=O)NC[C@@]2(O)CC[C@@H](S(C)(=O)=O)C[C@@H]2O)c(Cl)c1-c1ccc(CC(C)(C)C(F)(F)F)cc1OC(F)F` (single isomer, unassigned) [Example 49, 4-Chloro-5-(2-(difluoromethoxy)-4-(3,3,3-trifluoro-2,2-dimethylpropyl)phenyl)-N-(((1S*,2S*,4R*)-1,2-dihydroxy-4-(methylsulfonyl)cyclohexyl)methyl)-1-ethyl-1H-pyrazole-3-carboxamide], for which the Kd in test [1] (ThermoFluor® Assay, Kd) was determined as 26 nM. Besides, the inhibition at 2 µM on full-length human RORγt (setting [3]) turned out to be 96%. This compound also returned an IC50 at full-length human RORγt (setting [4]) of 61 nM.
For `CCn1nc(C(=O)NC[C@H]2CC[C@@H](S(C)(=O)=O)CC2)c(Cl)c1-c1ccc(N[C@H](C)C(F)(F)F)cc1Cl` [Example 175, 4-Chloro-5-(2-chloro-4-(((R)-1,1,1-trifluoropropan-2-yl)amino)phenyl)-1-ethyl-N-(((1s,4S)-4-(methylsulfonyl)cyclohexyl)methyl)-1H-pyrazole-3-carboxamide], the Kd in test [1] (setting [2]) amounted to 230 nM. Besides, the inhibition at 2 µM at full-length human RORγt (setting [3]) was 88%. This compound also had an IC50 on full-length human RORγt (setting [4]) of 510 nM.
As for `CCn1nc(C(=O)NC[C@]2(O)CC[C@@H](S(C)(=O)=O)CC2)c(Cl)c1-c1ccc(CC(C)(C)C(F)(F)F)cc1` [Example 167, 4-Chloro-1-ethyl-N-(((1s,4s)-1-hydroxy-4-(methylsulfonyl)cyclohexyl)methyl)-5-(4-(3,3,3-trifluoro-2,2-dimethylpropyl)phenyl)-1H-pyrazole-3-carboxamide], in test [1] (setting [2]), the Kd was found to be 8.6 nM. In addition, on full-length human RORγt (setting [5]), the inhibition at 0.67 µM was 83%. At full-length human RORγt (setting [4]), this compound came in with an IC50 of 24 nM.
On the same counts, the results for `CCn1nc(C(=O)NC[C@H]2CC[C@H](S(C)(=O)=O)CC2)c(Cl)c1-c1ccc(CC(C(F)(F)F)C(F)(F)F)cc1OC(F)F` [Example 86, 4-Chloro-5-(2-(difluoromethoxy)-4-(3,3,3-trifluoro-2-(trifluoromethyl)propyl)phenyl)-1-ethyl-N-(((1r,4r)-4-(methylsulfonyl)cyclohexyl)methyl)-1H-pyrazole-3-carboxamide] are 0.17 nM, 103% and 5.6 nM.
Turning to `CCn1nc(C(=O)NC[C@]2(C#N)CC[C@@H](S(C)(=O)=O)CC2)c(Cl)c1-c1ccc(CC(C)(C)C(F)(F)F)cc1Cl` [Example 166, 4-Chloro-5-(2-chloro-4-(3,3,3-trifluoro-2,2-dimethylpropyl)phenyl)-N-(((1s*,4s*)-1-cyano-4-(methylsulfonyl)cyclohexyl)methyl)-1-ethyl-1H-pyrazole-3-carboxamide], in test [1] (setting [2]), the Kd stood at 0.71 nM. Further, at full-length human RORγt (HEK-293T, 0.07 μM compound concentration (footnote *********), read-out: RORγt (FL) Reporter Assay A or B, % inhibition), the inhibition at 0.07 µM was determined as 88%. Also, the IC50 at full-length human RORγt (setting [4]) amounted to 0.92 nM.
`CCn1nc(C(=O)NC[C@]2(O)CC[C@H](S(C)(=O)=O)CC2)c(Cl)c1-c1ccc(N[C@H](C)C(F)(F)F)cc1OC` [Example 220, 4-Chloro-1-ethyl-N-(((1r,4R)-1-hydroxy-4-(methylsulfonyl)cyclohexyl)methyl)-5-(2-methoxy-4-(((R)-1,1,1-trifluoropropan-2-yl)amino)phenyl)-1H-pyrazole-3-carboxamide]: in test [1] (setting [2]), the Kd is 430 nM. Also, the “RORγt (FL) Reporter Assay A or B, % inhibition @ 6 μM” value on full-length human RORγt (6 μM compound concentration) turned out to be 90%. For the same compound, the IC50 at full-length human RORγt (HEK293T cells, read-out: RORγt (FL) Reporter Assay A or B, IC50) is 1100 nM.
As for `CCn1nc(C(=O)NC[C@]2(O)CC[C@@H](S(C)(=O)=O)CC2)c(C#N)c1-c1ccc(CC(C)C(F)(F)F)cc1OC` (stereo partly drawn) [Example 122, 4-Cyano-1-ethyl-N-(((1s,4s)-1-hydroxy-4-(methylsulfonyl)cyclohexyl)methyl)-5-(2-methoxy-4-(3,3,3-trifluoro-2-methylpropyl)phenyl)-1H-pyrazole-3-carboxamide], the Kd in test [1] (setting [2]) is 27 nM. Further, the inhibition at 6 µM on full-length human RORγt (setting [6]) is 104%. The same compound displayed an IC50 on full-length human RORγt (setting [4]) of 150 nM.
As for `CCn1nc(C(=O)NC[C@]2(O)CC[C@@H](S(C)(=O)=O)CC2)c(Cl)c1-c1ccc(C(=O)C(C)(C)C(F)(F)F)cc1OC(F)F` [Example 105, 4-Chloro-5-(2-(difluoromethoxy)-4-(3,3,3-trifluoro-2,2-dimethylpropanoyl)phenyl)-1-ethyl-N-(((1s,4s)-1-hydroxy-4-(methylsulfonyl)cyclohexyl)methyl)-1H-pyrazole-3-carboxamide], in test [1] (setting [2]), the Kd worked out at 3.3 nM. Further, the inhibition at 3 µM at full-length human RORγt (setting [3]) was 28%. At full-length human RORγt (setting [4]), this compound showed an IC50 of 13 nM.
Regarding `CCn1nc(C(=O)NC[C@]2(O)CC[C@@H](S(C)(=O)=O)CC2)c(Cl)c1-c1ccc(CCC(F)(F)F)cc1Cl` [Example 173, 4-Chloro-5-(2-chloro-4-(3,3,3-trifluoropropyl)phenyl)-1-ethyl-N-(((1s,4s)-1-hydroxy-4-(methylsulfonyl)cyclohexyl)methyl)-1H-pyrazole-3-carboxamide], the dissociation constant Kd in test [1] (setting [2]) turned out to be 12 nM. The inhibition at 0.67 µM on full-length human RORγt (setting [3]) is 36%. The IC50 against full-length human RORγt (setting [4]) was 28 nM.
As for `CCn1nc(C(=O)NC[C@H]2CC[C@H](S(C)(=O)=O)CC2)c(C)c1-c1ccc(CCC(F)(F)F)cc1OC` [Example 226, 1-Ethyl-5-(2-methoxy-4-(3,3,3-trifluoropropyl)phenyl)-4-methyl-N-(((1r,4r)-4-(methylsulfonyl)cyclohexyl)methyl)-1H-pyrazole-3-carboxamide], in test [1] (setting [2]), the Kd stood at 12 nM. The inhibition at 0.67 µM on full-length human RORγt (setting [5]) was determined as 71%. Besides, 38 nM corresponded to half-maximal inhibition against full-length human RORγt (setting [4]) (IC50).
Consider `CCn1nc(C(=O)NC[C@H]2CC[C@@H](S(C)(=O)=O)CO2)c(Cl)c1-c1ccc(N[C@H](C)C(F)(F)F)cc1OC` (relative stereo) [Example 17, 4-Chloro-1-ethyl-5-(2-methoxy-4-(((R)-1,1,1-trifluoropropan-2-yl)amino)phenyl)-N-(((2R*,5R*)-5-(methylsulfonyl)tetrahydro-2H-pyran-2-yl)methyl)-1H-pyrazole-3-carboxamide], for which the Kd in test [1] (ThermoFluor® Assay, Kd) worked out at 1300 nM. At full-length human RORγt (setting [6]), the inhibition at 6 µM was 67%. This compound gave an IC50 against full-length human RORγt (setting [4]) of 2200 nM.
`CCn1nc(C(=O)NC[C@H]2CC[C@H](S(C)(=O)=O)CC2)c(Cl)c1-c1ccc(N[C@H](C)C(F)(F)F)cc1C(C)C` [Example 204, 4-Chloro-1-ethyl-5-(2-isopropyl-4-(((R)-1,1,1-trifluoropropan-2-yl)amino)phenyl)-N-(((1r,4R)-4-(methylsulfonyl)cyclohexyl)methyl)-1H-pyrazole-3-carboxamide]: the Kd in test [1] (setting [2]) was found to be 13 nM. Moreover, the inhibition at 2 µM on full-length human RORγt (setting [3]) was determined as 102%. Further, on full-length human RORγt (setting [4]), the IC50 came out at 53 nM.
`CCn1nc(C(=O)NC[C@]2(C#N)CC[C@H](S(C)(=O)=O)CC2)c(Cl)c1-c1ccc(N[C@H](C)C(F)(F)F)cc1OC` [Example 33, 4-Chloro-N-(((1r,4R)-1-cyano-4-(methylsulfonyl)cyclohexyl)methyl)-1-ethyl-5-(2-methoxy-4-(((R)-1,1,1-trifluoropropan-2-yl)amino)phenyl)-1H-pyrazole-3-carboxamide]: the dissociation constant (Kd) in test [1] (setting [2]) came to 450 nM. At full-length human RORγt (setting [6]), the inhibition at 6 µM was 88%. Further, the IC50 against full-length human RORγt (setting [4]) stood at 1100 nM.
